Measured values from paper PMC3830801, “Synthesis and Biological Evaluation of 2-Hydroxy-3-[(2-aryloxyethyl)amino]propyl 4-[(Alkoxycarbonyl)amino]benzoates” (The Scientific World Journal, 2013).

Assays:
spinach chloroplasts = assay: Photosynthetic electron transport (PET) in spinach chloroplasts (DCPIP photoreduction); assay type: biochemical, Spinacia oleracea L.; settings: DMSO 8% v/v
Method: Chloroplasts were prepared from spinach (Spinacia oleracea L.) according to Masarovičová and Král'ová [38]. The inhibition of photosynthetic electron transport (PET) in spinach chloroplasts was determined spectrophotometrically (Genesys 6, Thermo Scientific, USA), using an artificial electron acceptor 2,6-dichlorophenol-indophenol (DCIPP) according to Král'ová et al., and the rate of photosynthetic electron transport was monitored as a photoreduction of DCPIP. The measurements were carried out in phosphate buffer (0.02 mol/L, pH 7.2) containing sucrose (0.4 mol/L), MgCl2 (0.005 mol/L), and NaCl (0.015 mol/L). The chlorophyll content was 30 mg/L in these experiments, and the samples were irradiated (~100 W/m^2 with 10 cm distance) with a halogen lamp (250 W) using a 4 cm water filter to prevent warming of the samples (suspension temperature 22°C). The studied compounds were dissolved in DMSO due to their limited water solubility, and the concentration of DMSO was constant (8% (v/v)) in control as well as in amphiphile-treated samples.

[1] = Lipophilicity determination by HPLC (capacity factor k / log k); assay type: physicochemical; settings: RP-HPLC, C18, MeOH 55%/H2O 45%
Description: A Waters Alliance 2695 XE HPLC separation module and a Waters Photodiode Array Detector 2996 (Waters Corp., Milford, MA, USA) were used. A Symmetry C18 5 μm, 4.6 × 250 mm, part number WAT054275 (Waters Corp., Milford, MA, USA) chromatographic column was used. The HPLC separation process was monitored by Empower 2 Chromatography Data Software, Waters 2009 (Waters Corp., Milford, MA, USA). A mixture of MeOH p.a. (55%) and H2O-HPLC–Milli-Q Grade (45%) was used as a mobile phase. The total flow of the column was 1.0 mL/min, injection volume 30 μL, column temperature 45°C, and sample temperature 10°C. The detection wavelength of 210 nm was chosen. The KI methanolic solution was used for the dead time (t D) determination. Retention times (t R) were measured in minutes. The capacity factors k were calculated using the Empower 2 Chromatography Data Software according to formula k = (t R − t D)/t D, where t R is the retention time of the solute, whereas t D denotes the dead time obtained using an unretained analyte. logk, calculated from the capacity factor k, is used as the lipophilicity index converted to logP scale.

[2] = test system: Mycobacterium avium subsp. paratuberculosis CIT03; assay: In vitro antimycobacterial evaluation (alamarBlue, MIC); assay type: cell-based; settings: Mycobacterium avium, 264 h; MIC/IC90, 11 days incubation, 37°C
Method: (§1) Clinical isolates of Mycobacterium avium subsp. paratuberculosis CIT03 and M. intracellulare were grown in Middlebrook broth (MB), supplemented with oleic-albumin-dextrose-catalase supplement (OADC, Becton Dickinson, UK) and mycobactin J (2 μg/mL). Identification of these isolates was performed using biochemical and molecular protocols. At log phase growth, the culture (10 mL) was centrifuged at 15,000 rpm/20 min using a bench top centrifuge (Model CR 4–12, Jouan Inc., UK). Following the removal of the supernatant, the pellet was washed in fresh Middlebrook 7H9GC broth and resuspended in fresh supplemented MB (10 mL). The turbidity was adjusted to match McFarland standard no. 1 (3 × 10^8 cfu) with MB broth. A further 1 : 20 dilution of the culture was then performed in MB broth. The antimicrobial susceptibility of all four mycobacterial species was investigated in a 96-well plate format. In these experiments, sterile deionised water (300 μL) was added to all outer-perimeter wells of the plates to minimize evaporation of the medium in the test wells during incubation. Each evaluated compound (100 μL) was incubated with each of the mycobacterial species (100 μL). Dilutions of each compound were prepared in duplicate. For all synthesized compounds, final concentrations ranged from 1,000 μg/mL to 8 μg/mL. All compounds were prepared in DMSO, and subsequent dilutions were made in supplemented MB. The plates were sealed with parafilm and incubated at 37°C, for 7 days in the case of M. intracellulare and 11 days in the case of M. avium paratuberculosis. Following incubation, a 10% addition of alamarBlue (AbD Serotec) was mixed with each well, and readings at 570 nm and 600 nm were taken, initially for background subtraction and subsequently after 24 h reincubation. […] For noninterfering compounds, a blue colour in the well was interpreted as an absence of growth, and a pink colour was scored as growth. The MIC was initially defined as the lowest concentration which prevented a visual colour change from blue to pink. […] The MIC/IC90 value is routinely and widely used in bacterial assays and is a standard detection limit according to the Clinical and Laboratory Standards Institute (CLSI, http://www.clsi.org/).

[3] = test system: Mycobacterium intracellulare; assay: as above; assay type: cell-based; settings: Mycobacterium intracellulare, 168 h; MIC/IC90, 7 days incubation, 37°C
Method: as §1

[4] = pKa determination by RP-HPLC; assay type: physicochemical; settings: from retention factor vs pH of mobile phase, recalculated for water medium
[5] = test system: human monocytic leukaemia THP-1 cell line; assay: In vitro cytotoxicity assay (WST-1); assay type: cell-based; settings: 24 h; for increase in LD50 relative to cytotoxicity: human, 30 μmol/L
Method: The human monocytic leukaemia THP-1 cell line was purchased from the European Collection of Cell Cultures (ECACC, Salisbury, UK). […] Cells were passaged at approximately one-week intervals. […] The maximum concentration of DMSO in the assays never exceeded 0.1%. Cytotoxicity of the compounds was determined using a WST-1 assay kit (Roche Diagnostics, Mannheim, Germany), as described previously. The median lethal dose values, LD50, were deduced through the production of a dose-response curve. All data from three independent experiments were evaluated using GraphPad Prism 5.00 software (GraphPad Software, San Diego, CA, USA, http://www.graphpad.com).

## CCCCOC(=O)Nc1ccc(C(=O)OCC(O)CNCCOc2ccc(OC)cc2)cc1.Cl (centres unmarked) [Compound 20d, 2-Hydroxy-3-[2-(4-methoxyphenoxy)ethylamino]-propyl 4-(Butoxycarbonylamino)benzoate Hydrochloride]
Spinach chloroplasts
  effect on the rate of PET (in words): significantly stimulated the rate of PET
[1]
  Log k: 0.4241
[2]
  MIC: 62 µM
[3]
  MIC: 121 µM
[4]
  pKa: 8.18

## CCCCOC(=O)Nc1ccc(C(=O)OCC(O)CNCCOc2c(OC)cccc2OC)cc1.Cl (centres unmarked) [Compound 21d, 2-Hydroxy-3-[2-(2,6-dimethoxyphenoxy)ethylamino]-propyl 4-(Butoxycarbonylamino)benzoate Hydrochloride]
Spinach chloroplasts
  effect on the rate of PET (in words): significantly stimulated the rate of PET
[5]
  increase in LD50 relative to cytotoxicity: 61%
[1]
  Log k: 0.4177
[2]
  MIC: 59 µM
[3]
  MIC: 114 µM
[4]
  pKa: 8.58

## CCCCOC(=O)Nc1ccc(C(=O)OCC(O)CNCCOc2ccccc2F)cc1.Cl (centres unmarked) [Compound 22d, 3-[2-(2-Fluorophenoxy)ethylamino]-2-hydroxypropyl 4-(Butoxycarbonylamino)benzoate Hydrochloride]
Spinach chloroplasts
  effect on the rate of PET (in words): significantly stimulated the rate of PET
[1]
  Log k: 0.4341
[2]
  MIC: 124 µM
[3]
  MIC: 124 µM
[4]
  pKa: 7.96

## CCCCOC(=O)Nc1ccc(C(=O)OCC(O)CNCCOc2ccc(F)cc2)cc1.Cl (centres unmarked) [Compound 23d, 3-[2-(4-Fluorophenoxy)ethylamino]-2-hydroxypropyl 4-(Butoxycarbonylamino)benzoate Hydrochloride]
Spinach chloroplasts
  effect on the rate of PET (in words): significantly stimulated the rate of PET
[5]
  increase in LD50 relative to cytotoxicity: 96%
[1]
  Log k: 0.4365
[2]
  MIC: 64 µM
[3]
  MIC: 258 µM
[4]
  pKa: 8.08

## CC[C@@]1(O)C(=O)OCc2c1cc1n(c2=O)Cc2cc3ccccc3nc2-1 [camptothecin, reference compound]
[5]; THP-1 cells, highest dose 30 μmol/L
  LD50: 0.16 ± 0.07 µmol/L
